Target: T1, BTK kinase domain (Homo sapiens, UniProt Q06187)
T1 construct: human BTK kinase domain (residues 387–659); 6xHis (N, cleaved yes); TEV protease cleavage site (N, cleaved yes); made in house; virus produced in Sf9, expression in Tni insect cells
Test: LC-MS covalent binding and ibrutinib competition assay with recombinant BTK kinase domain
Conditions: for protein labeled by the PROTAC / formation of covalent complex with BTK: 3 μM compound + 2 μM BTK; for protein labeled by the PROTAC / displacement by ibrutinib (ibrutinib adduct formation) / formation of covalent complex with BTK: LC-MS; for displacement by ibrutinib (ibrutinib adduct formation): 40 μM ibrutinib added to preformed complex; for displacement by ibrutinib (ibrutinib adduct formation) / time scale of exchange / dissociation of the covalent complex: 37 °C; for time scale of exchange / dissociation of the covalent complex: 40 μM ibrutinib
Experimental: We also used LC-MS to directly observe the formation of covalent complexes with recombinant BTK and measure their dissociation kinetics (Figure 6C, D, Supporting Figure 5A).
Binding experiments were performed in Tris 20 mM pH = 8, 50 mM NaCl, and 1 mM DTT. BTK kinase domain was diluted to 2 μM in buffer, and 3 μM PROTAC was added by adding 1/100th volume from a 300 μM solution. The PROTACs were incubated with BTK at room temperature for various times. For testing by LCMS, 24 μL of the solution was mixed with 6 μL of 2.4% formic acid, and 10 μL was injected to LCMS.
For binding experiments in the presence of glutathione, freshly dissolved reduced glutathione was incubated at 6.14 mM with 4 μM compounds for 30 min at room temperature in Tris 20 mM pH = 8 and 50 mM NaCl. At this point BTK was added to a concentration of 2 μM (diluting the GSH to 5 mM and the compounds to 3.25 μM), and LC-MS was used as described previously to follow the covalent labeling of BTK.
For data analysis, the raw spectra were deconvoluted using a 27 000:37 000 Da window and 1 Da resolution. The signal from masses 27 000:30 000 and 34 000:37 000 (which contained no peaks) was averaged and subtracted from the whole signal.
Cloning and Over Expression of BTK
Human wild type BTK full length was obtained from the ORFeome (ref: http://www.orfeomecollaboration.org/), from which the full human BTK gene (clone HsCD00433457) was inserted into the mammalian expression vector pCDNA3.1. In parallel, a mutant BTK C481S was constructed by assemble 2 PCR products harboring the desired mutation and cloned into pCDNA3.1. Both constructs contain a C -terminal 6x-His tag and three amino acids sequence (GTK) linker between the BTK coding sequence and the His tag.
The expression of hBTK is driven by the CMV promoter. U2OS cells (ATCC HTB-96) were grown to 70% confluency in a 10 cm plate, transfected with either hBTK plasmid (BTK WT or C481S) using Lipofectamine 2000 reagent (Thermo Fisher Scientific) according to manufacturer’s instructions. Cells were subsequently incubated for 48 hours post transfection, trypsinized and resuspended in 12 mL medium, and divided 2 mL per well in a 6-well plates and left to adhere over-night. 72 hours post transfection 100 nM PROTACs were added for 24 hours and BT K was measured by performing western blot procedure as described in the main […]
Expression and Purification of Recombinant BTK
The expression and purification of human BTK kinase domain (residues 387–659) was based on the method used by Bradsha w JM. et al1. The kinase domain was inserted into pFastBac-1 with an N-terminal 6× -His tag followed by a TEV protease cleavage site (The plasmid was a gift from Dr. Ville Paavilainen, University of Helsinki). Viruses were produced […]
cells by infection of 2 L of cultured cells with 1:200 mL virus solution such that cell growth was terminated after 3 days. The cells were collected by centrifugation (800 g for 15 minutes), and the pellet was resu spended in 50 mL ly sis buf fer (10 mM Hepes, pH 7.5, 400 mM NaCl, 1.5 mM DTT) supplemented with 1× protease inhibitor cocktail (Roche). The cells were lysed by five passages through a cell homogenizer. The cellular debris wer e pelleted by centrifugation (30,000 g for 30 minutes). The protein was bound in batch to nickel– nitrilotriacetic acid agarose beads in binding buffer (lysis buffer supplemented with 20 mM imidazole) for 4 hours at 4°C. The beads were washed with additional binding buffer ( four 5 mL washes), and the protein was eluted with four 0.5 mL portions of elution buffer (lysis buffer […]
supplemented with 300 mM imidazole). The His tag was cleaved by the addition of TEV protease with concomitant dialysis overnight into cleavage buffer (50 mM Tris, pH 8.0, 0.5 mM EDTA, 1 mM DTT) at 4°C. The resulting soluble protein was passed ov er Ni -NTA beads to remove the protease and purified further by gel filtration on a HiLoad_16/60_Superdex_75 (GE Healthcare) column equilibrated with 20 mM Tris, pH 8.0, 50 mM NaCl, 1 mM DTT. The […]

T1 sequence (Q06187 387-659): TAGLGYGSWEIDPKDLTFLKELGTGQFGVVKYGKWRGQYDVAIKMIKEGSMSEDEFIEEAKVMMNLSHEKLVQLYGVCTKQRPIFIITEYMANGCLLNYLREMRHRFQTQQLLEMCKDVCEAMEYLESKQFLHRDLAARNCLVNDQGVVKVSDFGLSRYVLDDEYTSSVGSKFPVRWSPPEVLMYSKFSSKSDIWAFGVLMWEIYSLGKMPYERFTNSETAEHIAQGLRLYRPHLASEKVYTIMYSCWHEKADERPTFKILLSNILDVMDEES

SMILES | protein labeled by the PROTAC | displacement by ibrutinib (ibrutinib adduct formation) | formation of covalent complex with BTK (room temperature) | time scale of exchange / dissociation of the covalent complex [h] | ibrutinib labeling of BTK in presence of the PROTAC (4 μM ibrutinib, 1 h, room temperature) [%] | time to full ibrutinib labeling of BTK in presence of preincubated PROTAC (4 μM ibrutinib, room temperature) [h]
Nc1ncnc2c1c(-c1ccc(Oc3ccccc3)cc1)nn2C1CCCN(C(=O)C=CCCCCOCCOCCOCCOCCOc2cccc3c2C(=O)N(C2CCC(=O)NC2=O)C3=O)C1 (stereo not drawn) [IR-2] | 80–85% | no ibrutinib adduct was observed even after 28 h | – | – | – | –
CC(C)(C=C(C#N)C(=O)N1CCCC(n2nc(-c3ccc(Oc4ccccc4)cc3)c3c(N)ncnc32)C1)CCCOCCOCCOCCOCCOc1cccc2c1C(=O)N(C1CCC(=O)NC1=O)C2=O (stereo not drawn) [RC-3] | – | gradual displacement of the PROTAC by ibrutinib | extremely fast | 10 to 20 | – | –
N#CC(=CCCCCOCCOCCOCCOCCOc1cccc2c1C(=O)N(C1CCC(=O)NC1=O)C2=O)C(=O)N1CCCC(n2nc(-c3ccc(Oc4ccccc4)cc3)c3c(N)ncnc32)C1 (stereo not drawn) [RC-2] | – | gradual displacement of the PROTAC by ibrutinib | – | 10 to 20 | – | –
Nc1ncnc2c1c(-c1ccc(Oc3ccccc3)cc1)nn2C1CCCN(C(=O)CCCCCCOCCOCCOCCOCCOc2cccc3c2C(=O)N(C2CCC(=O)NC2=O)C3=O)C1 (stereo not drawn) [NC-1] | – | – | forms no covalent adduct | – | 100 | ≤ 1
Nc1ncnc2c1c(-c1ccc(Oc3ccccc3)cc1)nn2C1CCCN(C(=O)C=CCOCCOCCOCCOCCOCCOc2cccc3c2C(=O)N(C2CCC(=O)NC2=O)C3=O)C1 (stereo not drawn) [IR-1] | 80–85% | no ibrutinib adduct was observed even after 28 h | – | – | – | –

— paper PMC7349657, “Efficient Targeted Degradation via Reversible and Irreversible Covalent PROTACs” (Journal of the American Chemical Society, 2020)
